The text below walks through data of PubChem BioAssay (NCI).

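Each compound was tested at five concentrations against cells in 96-well plates for 48 hours. At the GI50, growth is halved. TGI denotes the concentration required for complete inhibition of growth.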

The first experiment deals with UO-31 renal. The experiment is described as follows: NCI tumour cell line growth inhibition, 48 h.
Take `CCN(CC)CC(C)Nc1ccc([N+](=O)[O-])c2sc3ccccc3c(=O)c12` (stereo not given): the GI50 was 1 µM and the TGI was found to be 3.29 µM.

With `N=C(N)c1ccc(-c2ccc(-c3cc(Cl)cc(Cl)c3)o2)nc1`, the GI50 is 1.54 µM and the TGI turned out to be 3.11 µM.

On to `CCOC(=O)CSc1nc(N)c2c(-c3ccc(OC)c(OC)c3)c3c(nc2n1)CCCC3`, for which the TGI is over 100 µM.

For the molecule `CNC(=O)OC(C)CN1c2ccccc2Sc2ccc(Cl)cc21` (stereo not given), the TGI is over 10 µM.

For the molecule `O=C(CCCCCCC(=O)Nc1ccc(N(CCCl)CCCl)cc1)NO`, the GI50 was 1.82 µM and the TGI worked out at 13 µM.

In the case of `CN1CC[C@@]2(c3cccc(O)c3)CC(=O)/C(=C/c3ccccc3)[C@H]1C2`, the TGI is 25.5 µM.

As to `O=C(N/N=C(/c1ccccc1)C(F)(F)F)c1ccncc1`, the TGI is over 100 µM.

The molecule `ONc1ncnc2nc[nH]c12` registered a TGI of over 100 µM.

`CCCc1[nH]c(SCCCCCCCCSc2nc(-c3ccc(F)cc3)c(CCC)[nH]2)nc1-c1ccc(F)cc1`: the TGI is over 100 µM.

`O=S(=O)(O)c1ccc2cccc(N=Nc3c(O)ccc4ccccc34)c2c1` had a TGI of over 100 µM.

As for `COc1ccc2nc(-c3ccc(-c4noc(-c5cc(OC)c(OC)c(OC)c5)n4)cc3)[nH]c2c1`, the GI50 is 18.9 µM and the TGI is 38.7 µM.

As for `COc1ccc(/C(=C2/O[C@@H]([C@H]3COC(C)(C)O3)[C@H]3OC(C)(C)O[C@@H]23)c2cc(OC)c(OC)c(OC)c2)cc1O`, the GI50 is 21.8 µM and the TGI was 70.4 µM.

`Cn1c(=O)c2c(nc(-n3nc(-c4ccc(Cl)cc4)cc3N)n2C)n(C)c1=O` registered a TGI of over 100 µM.

For the molecule `N=c1c2c(C(N)=O)cn(C3OC(CO)C(O)C3O)c2ncn1O` (stereo not given), the TGI is over 20.6 µM.

With `CCS(=O)(=O)Nc1ccc(Nc2c3ccccc3nc3ccccc23)c(OC)c1`, the TGI worked out at 6.34 µM.

The molecule `Cc1nc(N)nc(N)c1-c1ccc(Cl)c(Cl)c1` displayed a TGI of over 89.3 µM.

On to `Cc1cccc2nc3c(C(=O)NCCN(C)C)cccc3cc12`, for which the TGI was 5.44 µM.

Consider `C[C@]12CC[C@@H]3c4ccc(OP(=O)(O)O)cc4CC[C@H]3[C@@H]1CCC2=O`, for which the TGI was over 100 µM.

In the case of `CCSCCC(N)C(=O)O` (stereo not given), the TGI was over 100 µM.

In the case of `COc1ccc2nc(N/N=C/C(C)=N/Nc3cc(C)c4cc(OC)ccc4n3)cc(C)c2c1`, the TGI was over 100 µM.

A further experiment relates to PC-3 prostate. The experiment is described as follows: NCI tumour cell line growth inhibition, 48 h.
Turning to `CCN(CC)CC(C)Nc1ccc([N+](=O)[O-])c2sc3ccccc3c(=O)c12` (stereo not given), the GI50 is 2.52 µM and the TGI was over 100 µM.

As to `N=C(N)c1ccc(-c2ccc(-c3cc(Cl)cc(Cl)c3)o2)nc1`, the GI50 was 1.74 µM and the TGI is 3.25 µM.

For the molecule `CCOC(=O)CSc1nc(N)c2c(-c3ccc(OC)c(OC)c3)c3c(nc2n1)CCCC3`, the TGI is over 100 µM.

In turn, `CNC(=O)OC(C)CN1c2ccccc2Sc2ccc(Cl)cc21` (stereo not given) gave a TGI of over 10 µM.

`O=C(CCCCCCC(=O)Nc1ccc(N(CCCl)CCCl)cc1)NO`: the GI50 was 3.7 µM and the TGI is over 100 µM.

Molecule `CN1CC[C@@]2(c3cccc(O)c3)CC(=O)/C(=C/c3ccccc3)[C@H]1C2` gave a TGI of 14.4 µM.

For the molecule `O=C(N/N=C(/c1ccccc1)C(F)(F)F)c1ccncc1`, the TGI was over 100 µM.

In turn, `O=S(=O)(O)c1ccc2cccc(N=Nc3c(O)ccc4ccccc34)c2c1` yielded a TGI of over 100 µM.

Regarding `COc1ccc2nc(-c3ccc(-c4noc(-c5cc(OC)c(OC)c(OC)c5)n4)cc3)[nH]c2c1`, the GI50 is 20.5 µM and the TGI was over 100 µM.

As to `COc1ccc(/C(=C2/O[C@@H]([C@H]3COC(C)(C)O3)[C@H]3OC(C)(C)O[C@@H]23)c2cc(OC)c(OC)c(OC)c2)cc1O`, the GI50 is 4.12 µM and the TGI is over 100 µM.

Molecule `Cn1c(=O)c2c(nc(-n3nc(-c4ccc(Cl)cc4)cc3N)n2C)n(C)c1=O` showed a TGI of over 100 µM.

On to `N=c1c2c(C(N)=O)cn(C3OC(CO)C(O)C3O)c2ncn1O` (stereo not given), for which the TGI was 1.14 µM.

`Cc1nc(N)nc(N)c1-c1ccc(Cl)c(Cl)c1` displayed a TGI of over 100 µM.

As for `C[C@]12CC[C@@H]3c4ccc(OP(=O)(O)O)cc4CC[C@H]3[C@@H]1CCC2=O`, the TGI was over 100 µM.

`CCSCCC(N)C(=O)O` (stereo not given) had a TGI of over 100 µM.

In turn, `COc1ccc2nc(N/N=C/C(C)=N/Nc3cc(C)c4cc(OC)ccc4n3)cc(C)c2c1` showed a TGI of 45.6 µM.

Turning to `CN(C)CC(=O)Nc1ccc(Cn2nnc3c2C(=O)c2nnn(Cc4ccc(NC(=O)CN(C)C)cc4)c2C3=O)cc1`, the GI50 was 0.253 µM and the TGI was 0.825 µM.

Another experiment relates to U251 CNS. The experiment is described as follows: NCI tumour cell line growth inhibition, 48 h.
As to `CCN(CC)CC(C)Nc1ccc([N+](=O)[O-])c2sc3ccccc3c(=O)c12` (stereo not given), the GI50 was 1.46 µM and the TGI is 10.7 µM.

`N=C(N)c1ccc(-c2ccc(-c3cc(Cl)cc(Cl)c3)o2)nc1`: the GI50 was 1.76 µM and the TGI worked out at 3.31 µM.

Regarding `CCOC(=O)CSc1nc(N)c2c(-c3ccc(OC)c(OC)c3)c3c(nc2n1)CCCC3`, the TGI is over 100 µM.

Turning to `CNC(=O)OC(C)CN1c2ccccc2Sc2ccc(Cl)cc21` (stereo not given), the TGI is over 10 µM.

Regarding `CN1CC[C@@]2(c3cccc(O)c3)CC(=O)/C(=C/c3ccccc3)[C@H]1C2`, the TGI worked out at 11.1 µM.

As to `O=C(N/N=C(/c1ccccc1)C(F)(F)F)c1ccncc1`, the TGI is over 100 µM.

With `ONc1ncnc2nc[nH]c12`, the TGI is over 100 µM.

The molecule `CCCc1[nH]c(SCCCCCCCCSc2nc(-c3ccc(F)cc3)c(CCC)[nH]2)nc1-c1ccc(F)cc1` showed a TGI of over 100 µM.

In the case of `O=S(=O)(O)c1ccc2cccc(N=Nc3c(O)ccc4ccccc34)c2c1`, the TGI was over 100 µM.

Regarding `COc1ccc2nc(-c3ccc(-c4noc(-c5cc(OC)c(OC)c(OC)c5)n4)cc3)[nH]c2c1`, the GI50 was 1.68 µM and the TGI turned out to be 4.88 µM.

Take `COc1ccc(/C(=C2/O[C@@H]([C@H]3COC(C)(C)O3)[C@H]3OC(C)(C)O[C@@H]23)c2cc(OC)c(OC)c(OC)c2)cc1O`: the GI50 was 5 µM and the TGI amounted to 43.1 µM.

As for `Cn1c(=O)c2c(nc(-n3nc(-c4ccc(Cl)cc4)cc3N)n2C)n(C)c1=O`, the TGI was over 100 µM.

Take `N=c1c2c(C(N)=O)cn(C3OC(CO)C(O)C3O)c2ncn1O` (stereo not given): the TGI worked out at 3.14 µM.

As for `CCS(=O)(=O)Nc1ccc(Nc2c3ccccc3nc3ccccc23)c(OC)c1`, the TGI came out at 2.43 µM.

In turn, `Cc1nc(N)nc(N)c1-c1ccc(Cl)c(Cl)c1` gave a TGI of over 100 µM.

Turning to `Cc1cccc2nc3c(C(=O)NCCN(C)C)cccc3cc12`, the TGI was 8.63 µM.

`C[C@]12CC[C@@H]3c4ccc(OP(=O)(O)O)cc4CC[C@H]3[C@@H]1CCC2=O` displayed a TGI of over 100 µM.

Turning to `CCSCCC(N)C(=O)O` (stereo not given), the TGI is over 100 µM.

`COc1ccc2nc(N/N=C/C(C)=N/Nc3cc(C)c4cc(OC)ccc4n3)cc(C)c2c1`: the TGI amounted to 31.6 µM.

For the molecule `CN(C)CC(=O)Nc1ccc(Cn2nnc3c2C(=O)c2nnn(Cc4ccc(NC(=O)CN(C)C)cc4)c2C3=O)cc1`, the GI50 was 0.183 µM and the TGI was 0.361 µM.

The subject of another experiment is DMS 273 small cell lung. Kind of experiment: NCI tumour cell line growth inhibition, 48 h.
As to `ONc1ncnc2nc[nH]c12`, the TGI was over 100 µM.

Turning to `CCCc1[nH]c(SCCCCCCCCSc2nc(-c3ccc(F)cc3)c(CCC)[nH]2)nc1-c1ccc(F)cc1`, the TGI was over 100 µM.

On to `CCS(=O)(=O)Nc1ccc(Nc2c3ccccc3nc3ccccc23)c(OC)c1`, for which the TGI was found to be 1.85 µM.

On to `Cc1nc(N)nc(N)c1-c1ccc(Cl)c(Cl)c1`, for which the TGI is over 100 µM.

Consider `Cc1cccc2nc3c(C(=O)NCCN(C)C)cccc3cc12`, for which the TGI is 3.57 µM.

The next experiment has as its system OVCAR-4 ovarian. The experiment is described as follows: NCI tumour cell line growth inhibition, 48 h.
With `CCN(CC)CC(C)Nc1ccc([N+](=O)[O-])c2sc3ccccc3c(=O)c12` (stereo not given), the GI50 was 3.48 µM and the TGI was over 100 µM.

`CCOC(=O)CSc1nc(N)c2c(-c3ccc(OC)c(OC)c3)c3c(nc2n1)CCCC3` gave a TGI of over 100 µM.

Turning to `CNC(=O)OC(C)CN1c2ccccc2Sc2ccc(Cl)cc21` (stereo not given), the TGI was over 10 µM.

For `O=C(CCCCCCC(=O)Nc1ccc(N(CCCl)CCCl)cc1)NO`, the GI50 is 3.37 µM and the TGI is 32.4 µM.

Molecule `CN1CC[C@@]2(c3cccc(O)c3)CC(=O)/C(=C/c3ccccc3)[C@H]1C2` showed a TGI of 22.2 µM.

As for `ONc1ncnc2nc[nH]c12`, the TGI is over 100 µM.

`CCCc1[nH]c(SCCCCCCCCSc2nc(-c3ccc(F)cc3)c(CCC)[nH]2)nc1-c1ccc(F)cc1` yielded a TGI of 95.4 µM.

On to `O=S(=O)(O)c1ccc2cccc(N=Nc3c(O)ccc4ccccc34)c2c1`, for which the TGI was over 100 µM.

`COc1ccc2nc(-c3ccc(-c4noc(-c5cc(OC)c(OC)c(OC)c5)n4)cc3)[nH]c2c1`: the GI50 is 1.88 µM and the TGI was found to be 4.79 µM.

Turning to `COc1ccc(/C(=C2/O[C@@H]([C@H]3COC(C)(C)O3)[C@H]3OC(C)(C)O[C@@H]23)c2cc(OC)c(OC)c(OC)c2)cc1O`, the GI50 is 37.5 µM and the TGI was over 100 µM.

Consider `Cn1c(=O)c2c(nc(-n3nc(-c4ccc(Cl)cc4)cc3N)n2C)n(C)c1=O`, for which the TGI was over 100 µM.

`N=c1c2c(C(N)=O)cn(C3OC(CO)C(O)C3O)c2ncn1O` (stereo not given): the TGI is 6.81 µM.

As for `CCS(=O)(=O)Nc1ccc(Nc2c3ccccc3nc3ccccc23)c(OC)c1`, the TGI stood at 16.1 µM.
